Molecular target: T1, Recombinant human Protein-tyrosine phosphatase1B (PTP1B) (Homo sapiens, UniProt P18031)
T1 construct: Recombinant human Protein-tyrosine phosphatase1B (PTP1B) (amino acid 1-322 Biomol, USA); purchased Biomol, USA
T1 sequence (P18031 1-322): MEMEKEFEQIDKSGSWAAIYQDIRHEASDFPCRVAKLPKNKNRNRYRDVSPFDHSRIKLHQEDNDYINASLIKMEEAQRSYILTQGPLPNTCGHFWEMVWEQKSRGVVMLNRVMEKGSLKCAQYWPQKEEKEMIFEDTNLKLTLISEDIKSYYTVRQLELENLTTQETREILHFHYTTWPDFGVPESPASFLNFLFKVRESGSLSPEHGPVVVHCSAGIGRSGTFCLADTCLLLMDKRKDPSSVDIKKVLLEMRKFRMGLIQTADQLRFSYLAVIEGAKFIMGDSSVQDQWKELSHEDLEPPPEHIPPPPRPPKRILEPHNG
Experiment: PTP1B enzyme inhibition assay (pNpp substrate)
Assay type: biochemical
Conditions: inhibition of recombinant human PTP1B, pNpp 5 mM, 30 mins at 25° C; inhibitor concentration not given
Experimental: Protein tyrosine phosphatase 1B (PTP1B) is an intracellular enzyme which functions by removing the phosphate groups from phosphorylated tyrosine residues of cellular proteins. PTP1B has been implicated as a negative regulator of insulin action and therefore is of therapeutic interest. The ability of the test compounds to inhibit the activity of PTP1B is determined using an enzyme inhibition assay.
The assay is performed using two independent substrates of PTP1B namely, p-nitrophenyl phosphate (pNpp) and the phosphorylated Epidermal growth factor receptor peptide (EGFR).
In the assay performed with pNpp, the action of PTP1B results in the release of p-nitrophenol, which is yellow in colour and can be measured at 410 nm. In the case of the assay using EGFR, action of PTP1B results in the release of free phosphate group. This is trapped using a reagent containing ammonium molybdate and malachite green resulting in a colored complex whose absorbance can be measured at 620 nm.
1× Assay buffer 50 mM HEPES (pH 7.4) • 1 mM EDTA • 1 mM DTT • 0.05% Igepal® CA-630
Dilute recombinant Human PTP1B 1:150 in 1× Assay buffer for 10× stock,
Prepare 10× stock of pNpp (50 mM) in 1× Assay buffer
Prepare 100× stock in 100% DMSO, dilute 1:10 with 1× Assay buffer to get 10× stock in 10% DMSO.
PTP1B inhibition assay was performed using recombinant human PTP1B. PTP1B (0.016 μg/well) was incubated in a buffer containing 50 mM HEPES, 1 mM DTT, 1 mM EDTA and 0.05% Igepal® CA-630 with or without inhibitor (10× stock, final DMSO concentration is 1%) for 30 mins at 25° C. This was followed by addition of p-Nitrophenyl phosphate (pNpp) substrate (5 mM). The final volume of the reaction mixture is 50 μL and experiment was done in 96 well half area plate. The incubation was continued for 30 mins at 25° C. The conversion of pNpp to p-Nitrophenol (pNp) was measured at 410 nm in Spectramaxplus Spectrophotometer (Molecular Devices, USA).

| Compound | Activity Score |
| --- | --- |
| CC(C)(C)c1cc(C=C2SC(Nc3ccc(CC(=O)O)cc3)=NC2=O)cc(C(C)(C)C)c1O [Compound 37, {4-[5-(3,5-Di-tert-butyl-4-hydroxy-benzylidene)-4-oxo-4,5-dihydro-thiazol-2-ylamino]-phenyl}-acetic acid] | (+++) (+++ = >50% inhibition) |
| (4-{2-[5-(3-Benzyloxy-naphthalen-2-ylmethylene)-4-oxo-4,5-dihydro-thiazol-2-ylamino]-acetyl amino}-phenyl)-acetic acid [Compound 22] | (+++) (+++ = >50% inhibition) |
| O=C(O)Cc1ccc(NC2=NC(=O)C(=Cc3cc4ccccc4cc3OCc3ccccc3)S2)cc1 [Compound 3, {4-[5-(3-Benzyloxy-naphthalen-2-ylmethylene)-4-oxo-4,5-dihydro-thiazol-2-ylamino]-phenyl}-acetic acid] | (+++) (+++ = >50% inhibition) |
| (4-{5-[3-(3-Methoxy-benzyloxy)-naphthalen-2-ylmethylene]-4-oxo-4-4,5-dihydro-thiazol-2-ylamino}-phenyl)-sodium acetate [Compound 181] | (+) (+ = 10-20% inhibition) |
| O=C(O)Cc1ccc(NC2=NC(=O)C(=Cc3ccc(-c4ccccc4)cc3)S2)cc1 [Compound 9, [4-(5-Biphenyl-4-ylmethylene-4-oxo-4,5-dihydro-thiazol-2-ylamino)-phenyl]-acetic acid] | (+++) (+++ = >50% inhibition) |
| COc1cc(C=C2SC(Nc3ccc(CC(=O)O)cc3)=NC2=O)cc(OC)c1O [Compound 56, {4-[c-(4-hydroxy-3,5-dimethoxy-benzylidene)-4-oxo-4,5-dihydro-thiazol-2-ylamino]-phenyl}-acetic acid] | (+) (+ = 10-20% inhibition) |
| CC(C(=O)O)c1ccc(NC2=NC(=O)C(=Cc3ccc(-c4ccccc4)cc3)S2)cc1 (centres unmarked) [Compound 54, 2-[4-(5-Biphenyl-4-ylmethylene-4-oxo-4,5-dihydro-thiazol-2-ylamino)-phenyl]-propionic acid] | (+++) (+++ = >50% inhibition) |
| CNS(=O)(=O)Cc1ccc(NC2=NC(=O)C(=Cc3cn(CC(=O)O)c4ccccc34)S2)cc1 [Compound 44, {3-[2-(4-Methylsulfamoylmethyl-phenylamino)-4-oxo-4H-thiazol-5-ylidenemethyl]-indol-1-yl}-acetic acid] | (+) (+ = 10-20% inhibition) |
| [4-(N′-{4-Oxo-5-[4-(1H-tetrazol-5-yl)-benzylidene]-4,5-dihydro-thiazol-2-yl}-hydrazino)-phenyl]-acetic acid [Compound 34] | (+++) (+++ = >50% inhibition) |
| O=C(O)Cc1ccc(NC2=NC(=O)C(=Cc3cccc(N4C(=O)c5ccccc5C4=O)c3)S2)cc1 [Compound 50, (4-{5-[3-(1,3-Dioxo-1,3-dihydro-isoindol-2-yl)-benzylidene]-4-oxo-4,5-dihydro-thiazol-2-ylamino}-phenyl)-acetic acid] | (+++) (+++ = >50% inhibition) |
| O=C1N=C(Nc2ccc(Cc3nnn[nH]3)cc2)SC1=Cc1cc2ccccc2cc1OCc1ccccc1 [Compound 33, 5-(3-Benzyloxy-naphthalen-2-ylmethylene)-2-[4-(1H-tetrazol-5-ylmethyl)-phenylamino]-thiazol-4-one] | (+) (+ = 10-20% inhibition) |
| N#Cc1ccccc1-c1ccc(C=C2SC(Nc3ccc(CC(=O)O)cc3)=NC2=O)cc1 [Compound 17, {4-[5-(2′-Cyano-biphenyl-4-ylmethylene)-4-oxo-4,5-dihydro-thiazol-2-ylamino]-phenyl}-acetic acid] | (++) (++ = 20-50% inhibition) |
| O=C(O)Cc1ccc(NC2=NC(=O)C(=Cc3ccc(-n4cnnn4)cc3)S2)cc1 [Compound 45, {4-[4-Oxo-5-(4-tetrazol-1-yl-benzylidene)-4,5-dihydro-thiazol-2-ylamino]-phenyl}-acetic acid] | (+++) (+++ = >50% inhibition) |
| O=C(O)Cc1ccc(NC2=NC(=O)C(=Cc3ccc(-c4nnn[nH]4)cc3)S2)cc1 [Compound 19, (4-{4-Oxo-5-[4-(1H-tetrazol-5-yl)-benzylidene]-4,5-dihydro-thiazol-2-ylamino}-phenyl)-acetic acid] | (+++) (+++ = >50% inhibition) |

Other lines, results leading:

| Activity Score | Compound |
| --- | --- |
| (++) (++ = 20-50% inhibition) | Cc1cc(C=C2SC(Nc3nc(CC(=O)O)cs3)=NC2=O)nn1-c1ccccc1 [Compound 134, {2-[5-(5-Methyl-1-phenyl-1H-pyrazol-3-ylmethylene)-4-oxo-4,5-dihydro-thiazol-2-ylamino]-thiazol-4-yl}-acetic acid] |
| (+++) (+++ = >50% inhibition) | O=C(O)Cc1ccc(NC2=NC(=O)C(=Cc3ccc4[nH]ccc4c3)S2)cc1 [Compound 170, {4-[5-(H-Indol-5-ylmethylene)-4-oxo-4,5-dihydro-thiazol-2-ylamino]-phenyl}-acetic acid] |
| (+++) (+++ = >50% inhibition) | COc1cc(C=C2SC(Nc3ccc(CC(=O)O)cc3)=NC2=O)cc(OC)c1OC [Compound 59, {4-[4-Oxo-5-(3,4,5-trimethoxy-benzylidene)-4,5-dihydro-thiazol-2-ylamino]-phenyl}-acetic acid] |
| (++) (++ = 20-50% inhibition) | O=C(O)Cc1ccc(NC2=NC(=O)C(=Cc3cccn3-c3ccc(Br)cc3)S2)cc1 [Compound 60, (4-{5-[1-(4-Bromo-phenyl)-1H-pyrrol-2-ylmethylene]-4-oxo-4,5-dihydro-thiazol-2-ylamino}-phenyl)-acetic acid] |
| (+++) (+++ = >50% inhibition) | Cc1ccc(S(=O)(=O)NC(=O)Cc2ccc(NC3=NC(=O)C(=Cc4ccc(-n5cnnn5)c(OCc5ccccc5)c4)S3)cc2)cc1.[Na] [Compound 131, N-(2-{4-[5-(3-Benzyloxy-4-tetrazol-1-yl-benzylidene)-4-oxo-4,5-dihydro-thiazol-2-ylamino]-phenyl}-acetyl)-4-methyl-benzenesulfonamide sodium salt] |
| (+++) (+++ = >50% inhibition) | O=C(O)Cc1ccc(NC2=NC(=O)C(=Cc3ccc(-c4ccc(O)cc4)cc3)S2)cc1 [Compound 199, {4-[5-(4′-Hydroxy-biphenyl-4-ylmethylene)-4-oxo-4,5-dihydro-thiazol-2-ylamino]-phenyl}-acetic acid] |
| (+) (+ = 10-20% inhibition) | O=C(O)Cc1ccc(NC2=NC(=O)C(=Cc3ccc(-c4ccccc4)cc3)S2)cc1 [Compound 94, [4-(5-Biplenyl-4-ylmethylene-4-oxo-4,5-dihydro-thiazol-2-ylamino)-phenyl]-acetic acid] |
| (++) (++ = 20-50% inhibition) | O=C1N=C(Nc2ccc(CC(C(=O)O)C(=O)O)cc2)SC1=Cc1ccc(-c2ccccc2)cc1 [Compound 67, 2-[4-(5-Biphenyl-4-ylmethylene-4-oxo-4,5-dihydro-thiazol-2-ylamino)-benzyl]-malonic acid] |
| (+++) (+++ = >50% inhibition) | O=C([O-])Cc1ccc(NC2=NC(=O)C(=Cc3cc4ccccc4cc3OCc3ccc(F)cc3)S2)cc1.[Na+] [Compound 113, (4-{5-[3-(4-Fluoro-benzyloxy)-naphthalen-2-ylmethylene-4-oxo-4,5-dihydro-thiazol-2-ylamino)-phenyl]-acetyl}-sodium acetate] |
| (+++) (+++ = >50% inhibition) | O=C(O)Cc1ccc(NC2=NC(=O)C(=Cc3ccc(-c4ccccc4)cc3)S2)cc1C(=O)O [Compound 200, 5-(5-Biphenyl-4-ylmethylene-4-oxo-4,5-dihydro-thiazol-2-ylamino)-2-carboxymethyl-benzoic acid] |
| (+++) (+++ = >50% inhibition) | CCOc1ccc(-c2ccc(C=C3SC(Nc4ccc(CC(=O)NS(=O)(=O)c5ccc(C)cc5)cc4)=NC3=O)cc2)cc1.[Na] [Compound 214, N-(2-{4-[5-(4′-Ethoxy-biphenyl-4-ylmethylene)-4-oxo-4,5-dihydro-thiazol-2-ylamino]-phenyl}-acetyl)-4-methyl-benzenesulfonamide sodium salt] |
| (+++) (+++ = >50% inhibition) | O=C(O)COc1ccc2cc(C=C3SC(Nc4ccc(CC(=O)O)cc4)=NC3=O)ccc2c1 [Compound 163, {4-[5-(6-Carboxymethoxy-naphthalen-2-ylmethylene)-4-oxo-4,5-dihydro-thiazol-2-ylamino]-phenyl}-acetic acid] |

Source: US20090088432A1, “Thiazolinones and Oxazolinones and their Use as Ptp1b Inhibitors” (priority 2005, published 2009)
